What all share (assay type): biochemical
For one assay, the target named is PI3K β (Homo sapiens (Human), UniProt P42338). The assay is described as follows: PI3K β inhibition assay.
The next assay addresses mTORC (Homo sapiens (Human), UniProt P42345). The assay is described as follows: mTOR kinase inhibition assay. The following applies: Table 1; read-out: mTORC IC50.
In a further assay the target is PI3K α (Homo sapiens (Human), UniProt P42336). The assay is described as follows: PI3K α inhibition assay. Particulars: Table 1; read-out: PI3K α IC50.
PI3K α, sequence (P42336 whole entry): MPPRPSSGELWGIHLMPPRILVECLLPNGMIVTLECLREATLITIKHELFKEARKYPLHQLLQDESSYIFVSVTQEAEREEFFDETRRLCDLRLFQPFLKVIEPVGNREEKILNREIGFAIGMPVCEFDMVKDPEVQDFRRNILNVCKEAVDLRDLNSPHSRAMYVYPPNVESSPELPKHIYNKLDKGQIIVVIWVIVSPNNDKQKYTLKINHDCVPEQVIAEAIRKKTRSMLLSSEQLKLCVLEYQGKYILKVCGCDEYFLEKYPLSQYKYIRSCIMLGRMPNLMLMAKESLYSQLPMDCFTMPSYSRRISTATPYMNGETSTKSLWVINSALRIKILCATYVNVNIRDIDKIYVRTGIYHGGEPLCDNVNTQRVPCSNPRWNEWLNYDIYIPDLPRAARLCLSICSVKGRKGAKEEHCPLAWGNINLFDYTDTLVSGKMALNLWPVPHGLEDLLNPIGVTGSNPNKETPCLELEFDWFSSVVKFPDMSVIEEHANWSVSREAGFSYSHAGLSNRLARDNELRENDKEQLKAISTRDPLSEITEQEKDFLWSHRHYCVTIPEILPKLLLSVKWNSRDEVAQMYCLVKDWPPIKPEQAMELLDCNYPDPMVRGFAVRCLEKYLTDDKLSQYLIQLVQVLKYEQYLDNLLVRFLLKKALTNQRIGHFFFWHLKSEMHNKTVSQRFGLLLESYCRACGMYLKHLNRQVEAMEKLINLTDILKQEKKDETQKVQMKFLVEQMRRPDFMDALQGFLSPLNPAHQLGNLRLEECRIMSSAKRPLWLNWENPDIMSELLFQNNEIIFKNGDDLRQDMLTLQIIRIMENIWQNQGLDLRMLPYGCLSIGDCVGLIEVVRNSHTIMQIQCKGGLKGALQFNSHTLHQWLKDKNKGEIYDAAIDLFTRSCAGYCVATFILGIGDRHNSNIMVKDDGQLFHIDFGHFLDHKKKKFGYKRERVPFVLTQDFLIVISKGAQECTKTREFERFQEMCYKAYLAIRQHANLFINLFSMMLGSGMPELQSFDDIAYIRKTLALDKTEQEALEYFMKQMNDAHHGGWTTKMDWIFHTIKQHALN
PI3K α, sequence (P27986 whole entry partner): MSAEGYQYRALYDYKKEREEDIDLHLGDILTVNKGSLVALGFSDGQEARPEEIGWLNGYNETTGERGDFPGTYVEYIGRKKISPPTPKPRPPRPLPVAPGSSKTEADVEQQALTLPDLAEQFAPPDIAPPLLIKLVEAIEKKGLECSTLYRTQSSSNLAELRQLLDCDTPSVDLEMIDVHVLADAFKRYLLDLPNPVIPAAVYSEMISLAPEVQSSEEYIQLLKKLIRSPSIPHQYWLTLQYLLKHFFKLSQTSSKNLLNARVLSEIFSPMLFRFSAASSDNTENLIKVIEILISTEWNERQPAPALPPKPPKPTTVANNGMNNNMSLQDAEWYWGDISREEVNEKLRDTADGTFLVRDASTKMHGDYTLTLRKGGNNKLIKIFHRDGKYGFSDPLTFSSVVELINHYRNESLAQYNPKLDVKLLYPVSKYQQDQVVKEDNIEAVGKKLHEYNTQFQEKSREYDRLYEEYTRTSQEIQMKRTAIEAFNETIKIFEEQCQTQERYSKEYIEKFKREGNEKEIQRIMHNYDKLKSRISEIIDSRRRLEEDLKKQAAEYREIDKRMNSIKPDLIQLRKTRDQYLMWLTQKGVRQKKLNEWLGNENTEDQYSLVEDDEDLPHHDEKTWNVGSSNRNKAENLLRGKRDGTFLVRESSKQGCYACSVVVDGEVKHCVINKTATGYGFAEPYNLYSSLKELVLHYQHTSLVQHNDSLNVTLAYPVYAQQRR
The next assay concerns the target PI3K γ (Homo sapiens (Human), UniProt P48736). The assay is described as follows: PI3K γ inhibition assay. Particulars: Table 1; read-out: PI3K γ IC50.
The next assay has as its target PI3K δ (Homo sapiens (Human), UniProt O00329). The assay is described as follows: PI3K δ inhibition assay. Particulars: Table 1; read-out: PI3K δ IC50.

Structures are written as SMILES. Read-outs that look alike come from different tables or passages of the source.

PI3K δ, sequence (O00329 whole entry): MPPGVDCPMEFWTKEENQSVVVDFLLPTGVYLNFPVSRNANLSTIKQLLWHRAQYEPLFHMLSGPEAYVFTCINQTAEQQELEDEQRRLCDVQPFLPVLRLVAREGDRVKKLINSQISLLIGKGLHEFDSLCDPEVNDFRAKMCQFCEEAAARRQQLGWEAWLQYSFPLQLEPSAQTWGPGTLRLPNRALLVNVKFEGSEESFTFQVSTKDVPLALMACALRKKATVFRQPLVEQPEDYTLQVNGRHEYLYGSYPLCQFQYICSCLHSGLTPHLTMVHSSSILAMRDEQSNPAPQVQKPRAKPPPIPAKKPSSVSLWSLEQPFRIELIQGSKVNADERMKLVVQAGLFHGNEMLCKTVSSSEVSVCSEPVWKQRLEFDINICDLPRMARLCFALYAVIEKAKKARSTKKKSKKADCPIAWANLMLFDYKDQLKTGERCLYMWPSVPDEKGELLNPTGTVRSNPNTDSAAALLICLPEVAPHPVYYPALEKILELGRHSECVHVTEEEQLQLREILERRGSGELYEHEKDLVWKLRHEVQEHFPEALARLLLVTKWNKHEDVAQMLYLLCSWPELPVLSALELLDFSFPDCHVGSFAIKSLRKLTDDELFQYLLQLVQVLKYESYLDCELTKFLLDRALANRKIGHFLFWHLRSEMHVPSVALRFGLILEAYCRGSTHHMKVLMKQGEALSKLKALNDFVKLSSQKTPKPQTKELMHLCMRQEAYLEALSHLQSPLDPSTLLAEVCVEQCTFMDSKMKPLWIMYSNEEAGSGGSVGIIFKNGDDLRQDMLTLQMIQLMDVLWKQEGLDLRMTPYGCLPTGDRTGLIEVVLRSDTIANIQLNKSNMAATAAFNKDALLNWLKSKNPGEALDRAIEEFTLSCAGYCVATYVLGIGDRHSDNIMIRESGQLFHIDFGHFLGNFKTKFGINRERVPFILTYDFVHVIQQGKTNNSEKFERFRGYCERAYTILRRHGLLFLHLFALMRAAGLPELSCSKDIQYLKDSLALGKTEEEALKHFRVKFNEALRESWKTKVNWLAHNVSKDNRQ
PI3K δ, sequence (P27986 whole entry partner): as the sequence (P27986 whole entry partner) above
PI3K β, sequence (P42338 whole entry): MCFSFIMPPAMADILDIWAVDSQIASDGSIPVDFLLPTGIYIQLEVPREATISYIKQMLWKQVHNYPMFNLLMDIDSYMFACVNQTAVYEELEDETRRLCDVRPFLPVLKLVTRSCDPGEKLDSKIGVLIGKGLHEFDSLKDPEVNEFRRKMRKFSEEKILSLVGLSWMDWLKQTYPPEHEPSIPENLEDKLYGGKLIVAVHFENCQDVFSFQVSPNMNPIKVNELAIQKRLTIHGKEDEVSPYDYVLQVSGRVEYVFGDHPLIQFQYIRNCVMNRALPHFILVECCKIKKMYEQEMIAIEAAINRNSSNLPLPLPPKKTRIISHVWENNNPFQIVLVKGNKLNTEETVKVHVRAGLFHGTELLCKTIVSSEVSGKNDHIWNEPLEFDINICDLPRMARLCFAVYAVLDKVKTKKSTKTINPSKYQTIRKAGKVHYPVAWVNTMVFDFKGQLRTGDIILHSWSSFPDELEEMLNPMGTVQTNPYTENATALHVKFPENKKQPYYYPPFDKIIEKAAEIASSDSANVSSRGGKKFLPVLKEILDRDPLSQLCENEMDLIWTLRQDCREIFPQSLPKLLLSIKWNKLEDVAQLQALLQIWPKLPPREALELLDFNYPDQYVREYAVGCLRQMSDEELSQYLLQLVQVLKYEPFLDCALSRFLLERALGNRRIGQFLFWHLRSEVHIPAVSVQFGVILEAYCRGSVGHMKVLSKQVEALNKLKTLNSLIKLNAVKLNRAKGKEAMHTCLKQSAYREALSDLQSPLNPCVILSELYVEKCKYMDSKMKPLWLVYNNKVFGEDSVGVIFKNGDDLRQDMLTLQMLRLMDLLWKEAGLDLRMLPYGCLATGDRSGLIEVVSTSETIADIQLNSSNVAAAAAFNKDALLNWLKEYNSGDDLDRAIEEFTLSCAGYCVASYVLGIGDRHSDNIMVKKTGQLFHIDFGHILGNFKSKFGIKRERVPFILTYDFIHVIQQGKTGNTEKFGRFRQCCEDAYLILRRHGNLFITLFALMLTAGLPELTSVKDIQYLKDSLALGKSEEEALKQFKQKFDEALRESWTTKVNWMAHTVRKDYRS
PI3K β, sequence (P27986 whole entry partner): as the sequence (P27986 whole entry partner) above
PI3K γ, sequence (P48736 whole entry): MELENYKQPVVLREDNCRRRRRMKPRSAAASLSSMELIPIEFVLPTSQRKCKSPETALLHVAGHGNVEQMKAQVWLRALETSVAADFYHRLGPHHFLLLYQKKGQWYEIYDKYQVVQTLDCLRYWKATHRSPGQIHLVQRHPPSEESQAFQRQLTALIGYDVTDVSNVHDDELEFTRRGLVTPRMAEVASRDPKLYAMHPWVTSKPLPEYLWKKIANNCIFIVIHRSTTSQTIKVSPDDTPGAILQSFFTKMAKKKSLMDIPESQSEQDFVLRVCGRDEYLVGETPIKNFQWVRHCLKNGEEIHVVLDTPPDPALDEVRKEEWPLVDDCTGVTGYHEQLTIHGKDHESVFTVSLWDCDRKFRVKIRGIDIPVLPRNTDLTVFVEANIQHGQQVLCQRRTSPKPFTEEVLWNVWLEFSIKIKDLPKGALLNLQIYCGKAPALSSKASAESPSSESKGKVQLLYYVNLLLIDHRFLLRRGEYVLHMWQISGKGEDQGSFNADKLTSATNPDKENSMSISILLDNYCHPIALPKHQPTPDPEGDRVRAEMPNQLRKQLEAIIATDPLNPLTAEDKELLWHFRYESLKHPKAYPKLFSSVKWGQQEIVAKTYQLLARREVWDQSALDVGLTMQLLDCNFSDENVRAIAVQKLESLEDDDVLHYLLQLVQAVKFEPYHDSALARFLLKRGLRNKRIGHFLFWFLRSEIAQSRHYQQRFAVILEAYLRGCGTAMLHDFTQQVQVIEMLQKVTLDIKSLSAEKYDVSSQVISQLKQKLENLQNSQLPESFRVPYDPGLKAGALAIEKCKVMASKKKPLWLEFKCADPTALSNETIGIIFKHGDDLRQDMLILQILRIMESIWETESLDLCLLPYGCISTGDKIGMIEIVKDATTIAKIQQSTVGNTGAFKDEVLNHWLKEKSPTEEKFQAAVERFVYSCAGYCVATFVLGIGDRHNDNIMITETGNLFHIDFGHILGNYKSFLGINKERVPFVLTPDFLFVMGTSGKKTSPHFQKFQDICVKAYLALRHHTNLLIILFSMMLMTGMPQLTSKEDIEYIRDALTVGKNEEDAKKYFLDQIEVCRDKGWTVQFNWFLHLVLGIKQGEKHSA
Method for PI3K α: (§1) IC50 values are measured using either a standard TLC assay for lipid kinase activity (described below) or a high-throughput membrane capture assay. Kinase reactions are performed by preparing a reaction mixture containing kinase, inhibitor (2% DMSO final concentration), buffer (25 mM HEPES, pH 7.4, 10 mM MgCl2), and freshly sonicated phosphatidylinositol (100 μg/ml). Reactions are initiated by the addition of ATP containing 10 μCi of γ-32P-ATP to a final concentration 10 or 100 μM and allowed to proceed for 5 minutes at room temperature. For TLC analysis, reactions are then terminated by the addition of 105 μl 1N HCl followed by 160 μl CHCl3:MeOH (1:1). The biphasic mixture is vortexed, briefly centrifuged, and the organic phase is transferred to a new tube using a gel loading pipette tip precoated with CHCl3. […] The TLC plates are then dried, exposed to a phosphorimager screen (Storm, Amersham), and quantitated.
(§2) Briefly, the assay is a time resolved FRET assay that indirectly measures PIP3 product formed by the activity of a PI3-K. The kinase reaction is performed in a microtitre plate (e.g., a 384 well microtitre plate). The total reaction volume is approximately 20 ul per well. In the first step, each well receives 2 ul of test compound in 20% dimethylsulphoxide resulting in a 2% DMSO final concentration. Next, approximately 14.5 ul of a kinase/PIP2 mixture (diluted in 1× reaction buffer) is added per well for a final concentration of 0.25-0.3 ug/ml kinase and 10 uM PIP2. The plate is sealed and incubated for 15 minutes at room temperature. To start the reaction, 3.5 ul of ATP (diluted in 1× reaction buffer) is added per well for a final concentration of 10 uM ATP. The plate is sealed and incubated for 1 hour at room temperature. The reaction is stopped by adding 5 ul of Stop Solution per well and then 5 ul of Detection Mix is added per well. The plate is sealed, incubated for 1 hour at room temperature, and then read on an appropriate plate reader. Data is analyzed and IC50s are generated using GraphPad Prism 5.
Method for PI3K β: as §1, §2
Method for PI3K γ: as §1, §2
Method for PI3K δ: as §1, §2
Method for mTORC: The compounds described herein can be tested against recombinant mTOR (Invitrogen) in an assay containing 50 mM HEPES, pH 7.5, 1 mM EGTA, 10 mM MgCl2, 2.5 mM, 0.01% Tween, 10 μM ATP (2.5 μCi of p-32P-ATP), and 3 μg/mL BSA. Rat recombinant PHAS-1/4EBP1 (Calbiochem; 2 mg/mL) is used as a substrate. Reactions are terminated by spotting onto nitrocellulose, which is washed with 1M NaCl/1% phosphoric acid (approximately 6 times, 5-10 minutes each). Sheets are dried and the transferred radioactivity quantitated by phosphorimaging.
For instance, one can use Invitrogen's LanthaScreen™ Kinase assay to test the inhibitors of mTOR disclosed herein. This assay is a time resolved FRET platform that measures the phosphorylation of GFP labeled 4EBP1 by mTOR kinase. The kinase reaction is performed in a white 384 well microtitre plate. The total reaction volume is 20 ul per well and the reaction buffer composition is 50 mM HEPES pH7.5, 0.01% Polysorbate 20, 1 mM EGTA, 10 mM MnCl2, and 2 mM DTT. In the first step, each well receives 2 ul of test compound in 20% dimethylsulphoxide resulting in a 2% DMSO final concentration. Next, 8 ul of mTOR diluted in reaction buffer is added per well for a 60 ng/ml final concentration. To start the reaction, 10 ul of an ATP/GFP-4EBP1 mixture (diluted in reaction buffer) is added per well for a final concentration of 10 uM ATP and 0.5 uM GFP-4EBP1. The plate is sealed and incubated for 1 hour at room temperature. […] The plate is sealed, incubated for 1 hour at room temperature, and then read on a plate reader set up for LanthaScreen™ TR-FRET. Data is analyzed and IC50s are generated using GraphPad Prism 5.

On to `CNC(=O)Nc1nc2ccc(-c3cn(C(C)C)c4ncnc(N)c34)cc2s1` [Compound 22], for which, on PI3K β, the IC50 (commonly the concentration at which inhibition is half-maximal) is no more than 50 nM.
Consider `CC(C)n1nc(-c2cc3ccc(C#N)cc3[nH]2)c2c(N)ncnc21` [Compound 24], for which the concentration for half-maximal inhibition (IC50) at mTORC and at PI3K α was greater than 500 nM each time.
Regarding `CC(C)n1nc(-c2cc3ccc(C(N)=O)cc3[nH]2)c2c(N)ncnc21` [Compound 25], the figures for the half-inhibitory concentration (IC50) at mTORC and on PI3K α were less than 500 nM and greater than 500 nM, respectively.
Regarding `Nc1ncnc2c1c(-c1cc3cc(O)ccc3[nH]1)nn2C1CCCCC1` [Compound 26], the IC50 was less than 10 nM on mTORC; greater than 500 nM on PI3K α; greater than 500 nM on PI3K β (Table 1, read-out: PI3K β IC50); less than 500 nM at PI3K γ; less than 100 nM at PI3K δ.
Take `Nc1ncnc2c1c(-c1cc3cc(O)ccc3[nH]1)nn2C1CCC1` [Compound 27]: the concentration for half-maximal inhibition (IC50) at mTORC was less than 25 nM.
On to `CCOC(=O)Cn1nc(-c2cc3cc(O)ccc3[nH]2)c2c(N)ncnc21` [Compound 28], for which the IC50 on mTORC was less than 500 nM; at PI3K α it was greater than 500 nM; at PI3K β (Table 1, read-out: PI3K β IC50) it was greater than 500 nM; on PI3K δ, greater than 500 nM.
Consider `COc1cc2cc(-c3nn(C(C)C)c4ncnc(N)c34)[nH]c2cc1Cl` [Compound 29], for which the IC50 at mTORC is greater than 500 nM.
As to `CC(=O)N1CCC(n2nc(-c3cc4cc(O)ccc4[nH]3)c3c(N)ncnc32)CC1` [Compound 30], the IC50 at mTORC is less than 25 nM; on PI3K α it was greater than 500 nM; at PI3K β (Table 1, read-out: PI3K β IC50) it was greater than 500 nM; on PI3K δ, greater than 500 nM.
Consider `Nc1ncnc2c1c(-c1cc3cc(O)ccc3[nH]1)nn2C1CCN(C(=O)C2CC2)CC1` [Compound 31], for which the IC50 at mTORC is less than 25 nM; at PI3K α, greater than 500 nM; at PI3K β (Table 1, read-out: PI3K β IC50), greater than 500 nM; at PI3K δ, less than 500 nM.
With `CC(C)n1nc(-c2cc3cc(O)c(Cl)cc3[nH]2)c2c(N)ncnc21` [Compound 32], the IC50 on mTORC is less than 500 nM; on PI3K α, greater than 500 nM; on PI3K γ it was greater than 500 nM; on PI3K δ it was greater than 500 nM.
Take `Nc1ncnc2c1c(-c1cc3cc(O)ccc3[nH]1)nn2CCN1CCOCC1` [Compound 33]: the IC50 is less than 500 nM at mTORC, greater than 500 nM on PI3K α, greater than 500 nM at PI3K γ and greater than 500 nM at PI3K δ.
Turning to `Nc1ncnc2c1c(-c1cc3cc(O)ccc3[nH]1)nn2CC(=O)N1CCOCC1` [Compound 34], the 50% inhibitory concentration (IC50) at mTORC, at PI3K α, on PI3K γ and on PI3K δ was greater than 500 nM each time.
Regarding `CNC(=O)Cn1nc(-c2cc3cc(O)ccc3[nH]2)c2c(N)ncnc21` [Compound 35], the IC50 on mTORC, on PI3K α, at PI3K γ and on PI3K δ was greater than 500 nM throughout.
For the compound `Nc1ncnc2c1c(-c1cc3cccc(O)c3[nH]1)nn2C1CCCC1` [Compound 36], the half-inhibitory concentration (IC50) is less than 10 nM at mTORC, greater than 500 nM at PI3K α, less than 100 nM on PI3K γ and less than 500 nM at PI3K δ.
For `CC(C)n1nc(-c2cc3c(O)cccc3[nH]2)c2c(N)ncnc21` [Compound 37] the same measures were greater than 500 nM, less than 500 nM, less than 500 nM and less than 500 nM.
Consider `Nc1ncnc2c1c(-c1cc3cc(O)ccc3[nH]1)nn2Cc1cccnc1` [Compound 38], for which the IC50 is less than 500 nM at mTORC, greater than 500 nM on PI3K α, greater than 500 nM at PI3K γ and greater than 500 nM on PI3K δ.
In the case of `CC(C)n1nc(-c2cc3c(Cl)ccc(O)c3[nH]2)c2c(N)ncnc21` [Compound 39], the 50% inhibitory concentration (IC50) on mTORC was less than 10 nM; on PI3K α it was greater than 500 nM; at PI3K γ it was greater than 500 nM; at PI3K δ, greater than 500 nM.
With `COCCn1nc(-c2cc3cc(O)ccc3[nH]2)c2c(N)ncnc21` [Compound 40], the IC50 is less than 100 nM at mTORC, greater than 500 nM on PI3K α, greater than 500 nM on PI3K γ and greater than 500 nM on PI3K δ.
Take `Nc1ncnc2c1c(-c1cc3cccc(O)c3[nH]1)nn2C1CCN(C(=O)C2CC2)CC1` [Compound 41]: the IC50 at mTORC is less than 10 nM; on PI3K α it was greater than 500 nM; at PI3K β (Table 1, read-out: PI3K β IC50), greater than 500 nM; on PI3K γ, less than 50 nM; on PI3K δ, greater than 500 nM.
Regarding `Nc1ncnc2c1c(-c1cc3cc(O)ccc3[nH]1)nn2C1CCOCC1` [Compound 42], the IC50 on mTORC is less than 5 nM; at PI3K α it was greater than 500 nM; on PI3K β (Table 1, read-out: PI3K β IC50), greater than 500 nM; at PI3K δ it was less than 100 nM.
On to `CNC(=O)CCn1nc(-c2cc3cc(O)ccc3[nH]2)c2c(N)ncnc21` [Compound 43], for which the 50% inhibitory concentration (IC50) at mTORC is greater than 500 nM; at PI3K α it was greater than 500 nM; at PI3K β (Table 1, read-out: PI3K β IC50) it was greater than 500 nM; at PI3K δ, greater than 500 nM.
On to `Cc1nccn1CCn1nc(-c2cc3cc(O)ccc3[nH]2)c2c(N)ncnc21` [Compound 44], for which the IC50 on mTORC is less than 100 nM; on PI3K α, greater than 500 nM; at PI3K β (Table 1, read-out: PI3K β IC50), greater than 500 nM; at PI3K δ, greater than 500 nM.
Consider `CC(C)n1nc(-c2cc3cc(O)ccc3[nH]2)c2c(N)nccc21` [Compound 45], for which the IC50 on mTORC was greater than 500 nM.
Turning to `Nc1ncnc2c1c(-c1cc3c(Cl)cccc3[nH]1)nn2C1CCOCC1` [Compound 48], the IC50 was less than 50 nM on mTORC; greater than 500 nM at PI3K α; greater than 500 nM at PI3K β (Table 1, read-out: PI3K β IC50); greater than 500 nM at PI3K γ; greater than 500 nM at PI3K δ.
Turning to `Nc1ncnc2c1c(-c1cc3cc(O)ccc3[nH]1)nn2C1CC(N2CCOCC2)C1` (centres unmarked) [Compound 49], the IC50 at mTORC was less than 10 nM; at PI3K α, greater than 500 nM; at PI3K β (Table 1, read-out: PI3K β IC50) it was greater than 500 nM; on PI3K γ it was less than 500 nM; at PI3K δ it was less than 500 nM.
Regarding `CC(C)n1nc(-c2cc3cccc(Cl)c3[nH]2)c2c(N)ncnc21` [Compound 50], the half-maximal inhibitory concentration (IC50) on mTORC is less than 50 nM; on PI3K α, greater than 500 nM; on PI3K β (Table 1, read-out: PI3K β IC50) it was greater than 500 nM; at PI3K γ it was less than 500 nM; at PI3K δ, less than 500 nM.
For the compound `Nc1ncnc2c1c(-c1cc3cccc(Cl)c3[nH]1)nn2C1CCOCC1` [Compound 51], the IC50 at mTORC is less than 50 nM; at PI3K α, greater than 500 nM; at PI3K β (Table 1, read-out: PI3K β IC50), greater than 500 nM; at PI3K γ it was less than 500 nM; on PI3K δ, less than 500 nM.
For `CN1CCN(C2CC(n3nc(-c4cc5cc(O)ccc5[nH]4)c4c(N)ncnc43)C2)CC1` (centres unmarked) [Compound 52], the IC50 at mTORC was less than 500 nM; at PI3K α it was greater than 500 nM; at PI3K β (Table 1, read-out: PI3K β IC50) it was greater than 500 nM; at PI3K γ, greater than 500 nM; on PI3K δ, less than 500 nM.
As for `Nc1ncnc2c1c(-c1cc3cc(O)ccc3[nH]1)nn2C1CC(=O)C1` [Compound 53], the 50% inhibitory concentration (IC50) at mTORC was less than 100 nM; on PI3K α, greater than 500 nM; on PI3K β (Table 1, read-out: PI3K β IC50), greater than 500 nM; on PI3K γ it was greater than 500 nM.
`Nc1ncnc2c1c(-c1cc3cc(O)ccc3[nH]1)nn2C1CC(O)C1` (centres unmarked) [Compound 54]: the IC50 at mTORC is less than 25 nM; on PI3K α, greater than 500 nM; on PI3K β (Table 1, read-out: PI3K β IC50) it was greater than 500 nM; on PI3K γ, greater than 500 nM.
Consider `CC(C)N1CCC(n2nc(-c3cc4cc(O)ccc4[nH]3)c3c(N)ncnc32)CC1` [Compound 55], for which the IC50 is less than 500 nM at mTORC; greater than 500 nM on PI3K α; greater than 500 nM on PI3K β (Table 1, read-out: PI3K β IC50); greater than 500 nM on PI3K γ.
Consider `CC(C)N1CCC(n2nc(-c3cc4cc(O)cc(Cl)c4[nH]3)c3c(N)ncnc32)CC1` [Compound 56], for which the IC50 is greater than 500 nM at mTORC; greater than 500 nM on PI3K α; greater than 500 nM at PI3K β (Table 1, read-out: PI3K β IC50); greater than 500 nM at PI3K γ.
For the compound `Nc1ncnc2c1c(-c1cc3cc(O)ccc3[nH]1)nn2C1CCC(N2CCOCC2)CC1` (centres unmarked) [Compound 57], the IC50 on mTORC is less than 25 nM; on PI3K α it was greater than 500 nM; on PI3K β (Table 1, read-out: PI3K β IC50) it was greater than 500 nM; at PI3K γ, greater than 500 nM.
Regarding `CN1CCN(C2CCC(n3nc(-c4cc5cc(O)ccc5[nH]4)c4c(N)ncnc43)CC2)CC1` (centres unmarked) [Compound 58], the IC50 on mTORC is greater than 500 nM; at PI3K α it was greater than 500 nM; on PI3K β (Table 1, read-out: PI3K β IC50), greater than 500 nM; on PI3K γ, greater than 500 nM.
On to `COc1ccc2cc(-c3nn(C4CCOCC4)c4ncnc(N)c34)[nH]c2c1` [Compound 59], for which the IC50 at mTORC was greater than 500 nM; at PI3K α, greater than 500 nM; at PI3K β (Table 1, read-out: PI3K β IC50), greater than 500 nM; at PI3K γ, greater than 500 nM.
With `Nc1ncnc2c1c(-c1cc3ccc(O)cc3[nH]1)nn2C1CCOCC1` [Compound 60], the half-inhibitory concentration (IC50) is less than 100 nM on mTORC; greater than 500 nM on PI3K α; greater than 500 nM at PI3K β (Table 1, read-out: PI3K β IC50); less than 100 nM at PI3K γ.
Consider `COc1ccc(Cl)c2cc(-c3nn(C4CCOCC4)c4ncnc(N)c34)[nH]c12` [Compound 61], for which the IC50 on mTORC was less than 25 nM; on PI3K α, greater than 500 nM; on PI3K β (Table 1, read-out: PI3K β IC50), greater than 500 nM; on PI3K γ, greater than 500 nM; at PI3K δ, greater than 500 nM.
For `Nc1ncnc2c1c(-c1cc3cccc(O)c3[nH]1)nn2C1CCOCC1` [Compound 62], the IC50 was less than 5 nM at mTORC; greater than 500 nM at PI3K α; greater than 500 nM on PI3K β (Table 1, read-out: PI3K β IC50); greater than 500 nM at PI3K γ; less than 100 nM on PI3K δ.
For `COc1cccc2cc(-c3nn(C4CCOCC4)c4ncnc(N)c34)[nH]c12` [Compound 63], the IC50 on mTORC is less than 5 nM; at PI3K α, less than 500 nM; on PI3K β (Table 1, read-out: PI3K β IC50), greater than 500 nM; at PI3K γ it was less than 25 nM; on PI3K δ it was less than 25 nM.
On to `CC(C)N1CCC(n2nc(-c3cc4cccc(O)c4[nH]3)c3c(N)ncnc32)CC1` [Compound 64], for which the IC50 on mTORC is less than 25 nM; on PI3K α it was greater than 500 nM; at PI3K β (Table 1, read-out: PI3K β IC50), greater than 500 nM; at PI3K γ, less than 500 nM; at PI3K δ, less than 500 nM.

The values are drawn from patent publication US9828378B2, “Kinase inhibitors and methods of use” (Intellikine LLC, priority 2008, dated 2017).
